According to patent US20040006236A1, “Diaminopropionic acid derivatives” (priority 1999, published 2004):

Key:
[1] = tested on: Mac-1 and LFA-1-mediated neutrophil binding to immobilized ICAM-1; test: Neutrophil (Mac-1 and LFA-1)/ICAM-1 cell-based screening assay; conditions: human neutrophils
Experimental: Both Mac-1 and LFA-1 are expressed on the cell surface of neutrophils. The ability of antagonists to inhibit Mac-1 and LFA-1-mediated neutrophil binding to immobilized ICAM-1 was quantitated by a cell based assay. Typically, fusion protein consisting of the entire extracellular domain of human ICAM-1 and the Fc domain of human IgG (5dICAM-Ig) was coated onto 96 well microtiter plates (1 μg in 100 μL TBS) overnight at 4° C. The plates were then blocked with 150 μL of 10% PVP in TBS for 1 h at 37° C. Plates were washed 3 times (150 μL each) with TBS. Human neutrophils were purified from whole blood from healthy volunteers using LSM (ICN). Cells (8×10^6/mL) were fluorescently labeled with 6-carboxyfluorescein (100 μg/mL) for 40 min in IMDM/1 mM MgCl2/1.2 mM CaCl2 as described in Example 287. Cells (8×10^6/mL) were stimulated with f-Met-Leu-Phe (10 μM) for 5 min at room temperature just prior to being used in the assay, and diluted to 2×10^6 cells/mL with RPMI/0.05% BSA/0.2 mM MnCl2. Stock solutions (10 mM) of test compounds were diluted to 2.5 mM with DMSO. A series of 1:4 dilutions in DMSO were performed to achieve a concentration range of 38.2 nM-2.5 mM. Each sample was further diluted 50-fold with RPMI/0.05% BSA/0.2 mM MnCl2. Equal volumes of labeled cells were then added to assay tubes containing diluted compound. Final concentrations of compound tested in the assay ranged from 0.38 nM-25 μM with a cell concentration of 1×10^6 per mL. Cells were incubated for 10 min at 37° C. with gentle shaking, then dispensed (100 μL per well) onto ICAM-1 coated plates and incubated for 30 min at 37° C./5% CO2. Unbound cells were washed and plates were read on a Cytofluor™ 2300 (Millipore) as described in Example 384.

[2] = tested on: C57BI/6 mice; test: Delayed type hypersensitivity in mice (mBSA paw swelling); assay type: in vivo; conditions: compared to distilled water pumps
Experimental: Sensitization: On day 0, adult female C57BI/6 mice (20-25 g) received 50 μl each of a 1:1 mixture of 10 mg/ml methylated bovine serum albumin (mBSA) in phosphate buffered saline (PBS) and complete Freund's adjuvant (CFA) intradermally at two sites on shaved bellies (total volume 100 μl per mouse). Control mice received an equal volume of a PBS/CFA mixture (unsensitized).
Challenge: On day 7, the mice received 20 μl I of 5 mg/ml mBSA in PBS injected into the right hind paw. The contralateral left paw of each mouse was injected with an identical volume of PBS. After 24 hours, the paw swelling of both the hind feet of all mice was measured with microcalipers. To determine the paw swelling response, measurements of the left paw were subtracted from that of the right paw for each individual mouse.
At the time of challenge, anaesthetized mice were implanted on their backs with Alzet osmotic minipumps which delivered a constant volume per hour of the inhibitors (e.g. Example 226) subcutaneously. The pumps delivered a volume 200 μl over a period of 1 day. Different doses of the compounds were tested viz. 850, 250 and 85 mg/kg/day. The inhibitors were formulated in distilled water. Control mice received pumps containing distilled water. For antibody treatment groups, mice received 200 μg of anti-mouse LFA-1 (Mi7), anti-mouse Mac-1 (M1/70) or control rat IgG intraperitoneally on the day of challenge.
In table 10, the swelling response in antibody-treated animals is compared to the swelling response in rat IgG-treated animals. The swelling response in compound-treated animals is compared to the swelling-response in mice that had received pumps containing distilled water

[3] = tested on: BALB/c mice; test: Croton oil-induced dermatitis in mice (ear swelling); assay type: in vivo; conditions: compared to distilled water pumps
Experimental: Adult female BALB/c mice (20-25 g) received 10 μl of 20 mg/ml of croton oil in 80% acetone:20% olive oil vehicle on each side of the right ear (total of 20 μl per mouse). All the mice received a similar volume of the acetone/olive oil vehicle on the contralateral left ear. Negative control mice received vehicle on both ears. Six hours thereafter, the ear swelling on both ears was measured with microcalipers. The ear swelling response was determined by subtraction of the swelling measurements of the left ear from that of the right ear for each individual mouse.
Inhibitors were administered to mice via 3 day Alzet osmotic minipumps. Pumps containing different concentrations of the inhibitors were implanted on the backs of anaesthetized mice 2 days prior to croton oil application. Additional mice received an equal volume of distilled water in pumps. For mice receiving antibodies, anti-CD18 antibody (HB226) or control rat IgG were administered i.p. at 200 μg per mouse 18 hours prior to croton oil application.
In table 11, the swelling response in antibody-treated animals is compared to the swelling response in rat IgG-treated animals. The swelling response in compound-treated animals is compared to the swelling-response in mice that had received pumps containing distilled water

| SMILES | IC50 [1] [nM] | also measured |
| --- | --- | --- |
| O=C(CC1CCCCC1)NC[C@H](NC(=O)c1ccc(C(=O)NCc2cccc(O)c2)cc1Cl)C(=O)O [Example 78] | 253 | – |
| O=C(NCc1cccc(O)c1)c1ccc(C(=O)N[C@@H](CNC(=O)c2ccc3c(c2)S(=O)(=O)c2ccccc2C3=O)C(=O)O)c(Cl)c1 [Example 192] | 634 | – |
| O=C(NC[C@H](NC(=O)c1c(F)cccc1Cl)C(=O)O)c1ccc2[nH]nnc2c1 [Example 226] | – | Percentage inhibition of paw swelling in response to challenge with methylated bovine serum albumin ([2]; 1 μM, s.c. osmotic minipump): −2%; Percentage inhibition of paw swelling in response to challenge with methylated bovine serum albumin ([2]; 3 μM circulating serum level (250 mg/kg/day, s.c. osmotic minipump)): 52%; Percentage inhibition of paw swelling in response to challenge with methylated bovine serum albumin ([2]; 9 μM circulating serum level (850 mg/kg/day, s.c. osmotic minipump)): 77%; Percentage inhibition of ear swelling in response to croton oil application ([3]; 1 μM, osmotic minipump): 8%; Percentage inhibition of ear swelling in response to croton oil application ([3]; 2 μM circulating serum level (64 mg/kg/day, osmotic minipump)): 48%; Percentage inhibition of ear swelling in response to croton oil application ([3]; 4 μM circulating serum level (250 mg/kg/day, osmotic minipump)): 62% |
| O=C(NCc1cccc(O)c1)c1ccc(C(=O)N[C@@H](CNC(=O)c2cc(F)cc(F)c2)C(=O)O)c(Cl)c1 [Example 252, N-[2-chloro-4-[[[(3-hydroxyphenyl)methyl]amino]carbonyl]benzoyl]-3-(3,5-difluorobenzoyl)amino-L-alanine] | 34 | – |
| O=C(NCc1cccc(O)c1)c1ccc(C(=O)N[C@@H](CNC(=O)c2ccoc2)C(=O)O)c(Cl)c1 [Example 259, N-[2-chloro-4-[[[(3-hydroxyphenyl)methyl]amino]carbonyl]benzoyl]-3-(furan-3-carbonyl)amino-L-alanine] | 21 | – |
| O=C(NCc1cccc(O)c1)c1ccc(C(=O)N[C@@H](CNC(=O)c2ccccc2)C(=O)O)c(Cl)c1 [Example 302, 3-benzoylamino-N-[2-chloro-4-[[[(3-hydroxyphenyl)methyl]amino]carbonyl]benzoyl]-L-alanine] | 41 | – |
| O=C(NCc1cccc(O)c1)c1ccc(C(=O)N[C@@H](CNC(=O)c2cccs2)C(=O)O)c(Cl)c1 [Example 303, N-[2-chloro-4-[[[(3-hydroxyphenyl)methyl]amino]carbonyl]benzoyl]-3-(thiophene-2-carbonyl)amino-L-alanine] | 16 | – |
| Cc1cc(C(=O)NCc2cccc(O)c2)ccc1C(=O)N[C@@H](CNC(=O)c1cccs1)C(=O)O [Example 323] | 61 | – |
| O=C(NCc1cccc2[nH]ncc12)c1ccc(C(=O)N[C@@H](CNC(=O)c2cccs2)C(=O)O)c(Cl)c1 [Example 327, N-[2-chloro-4-[[[(1H-indazol-4-yl)methyl]amino]carbonyl]benzoyl]-3-(thiophene-2-carbonyl)amino-L-alanine] | 20 | – |
| Cc1cc(C(=O)NCc2cccc(O)c2)cc(C)c1C(=O)N[C@@H](CNC(=O)c1cccs1)C(=O)O [Example 330] | 6.7 | – |
| Cc1cc(C(=O)N[C@H](C)c2cccc3ccccc23)cc(C)c1C(=O)N[C@@H](CNC(=O)c1cccs1)C(=O)O [Example 333] | 14 | – |
| Cc1cc(C(=O)NCc2cccc(O)c2)cc(C)c1C(=O)N[C@@H](CNC(=O)c1ccsc1)C(=O)O [Example 336, N-[2,6-dimethyl-4-[[[(3-hydroxyphenyl)methyl]amino]carbonyl]benzoyl]-3-(thiophene-3-carbonyl)amino-L-alanine] | 6.1 | – |
| Cc1cc(C(=O)NCc2cccc(O)c2)cc(C)c1C(=O)N[C@@H](CNC(=O)c1cc(F)cc(F)c1)C(=O)O [Example 337, N-[2,6-dimethyl-4-[[[(3-hydroxyphenyl)methyl]amino]carbonyl]benzoyl]-3-(3,5-difluorobenzoylamino)-L-alanine] | 12 | – |

More lines, main results first:

| IC50 [1] [nM] | SMILES | also measured |
| --- | --- | --- |
| 3.9 | Cc1cc(C(=O)NCc2cccc(O)c2)cc(Cl)c1C(=O)N[C@@H](CNC(=O)c1cccs1)C(=O)O [Example 338, N-[2-chloro-4-[[[(3-hydroxyphenyl)methyl]amino]carbonyl]-6-methylbenzoyl]-3-[(thiophene-2-carbonyl)amino]-L-alanine] | – |
| 3 | Cc1cc(C(=O)NCc2cccc(O)c2)cc(Cl)c1C(=O)N[C@@H](CNC(=O)c1ccsc1)C(=O)O [Example 339, N-[2-chloro-4-[[[(3-hydroxyphenyl)methyl]amino]carbonyl]-6-methylbenzoyl]-3-[(thiophene-3-carbonyl)amino]-L-alanine] | – |
| 4 | Cc1cc(C(=O)NCc2cccc(O)c2)cc(Cl)c1C(=O)N[C@@H](CNC(=O)c1cc(F)cc(F)c1)C(=O)O [Example 340, N-[2-chloro-4-[[[(3-hydroxyphenyl)methyl]amino]carbonyl]-6-methylbenzoyl]-3-[(3,5-difluorobenzoyl)amino]-L-alanine] | – |
| 2.3 | O=C(NCc1cccc(O)c1)c1cc(Cl)c(C(=O)N[C@@H](CNC(=O)c2cccs2)C(=O)O)c(Cl)c1 [Example 342, N-[2,6-dichloro-4-[[[(3-hydroxyphenyl)methyl]amino]carbonyl]benzoyl]-3-[(thiophene-2-carbonyl)amino]-L-alanine] | – |
| 1.9 | O=C(NCc1cccc(O)c1)c1cc(Cl)c(C(=O)N[C@@H](CNC(=O)c2ccsc2)C(=O)O)c(Cl)c1 [Example 343, N-[2,6-dichloro-4-[[[(3-hydroxyphenyl)methyl]amino]carbonyl]benzoyl]-3-[(thiophene-3-carbonyl)amino]-L-alanine] | – |
| 1.7 | O=C(NCc1cccc(O)c1)c1cc(Cl)c(C(=O)N[C@@H](CNC(=O)c2cc(F)cc(F)c2)C(=O)O)c(Cl)c1 [Example 344, N-[2,6-dichloro-4-[[[(3-hydroxyphenyl)methyl]amino]carbonyl]benzoyl]-3-[(3,5-difluorobenzoyl)amino]-L-alanine] | – |
| 0.1 | O=C(NCc1cccc(O)c1)c1cc(Cl)c(C(=O)N[C@@H](CNC(=O)c2cc(O)cc(O)c2)C(=O)O)c(Cl)c1 [Example 345, N-[2,6-dichloro-4-[[[(3-hydroxyphenyl)methyl]amino]carbonyl]benzoyl]-3-(3,5-dihydroxybenzoylamino)-L-alanine] | – |
